Measured values taken from patent US7135492B2, “1,3-disubstituted-2- thioxo-imidazolidine-4,5-dione derivatives useful in the treatment of atherosclerosis” (Wyeth, priority 2001, dated 2006).

How the values were obtained:
[1] = system: blood serum HDL cholesterol; assay: Determination of serum HDL cholesterol in cholesterol/cholic acid-fed rats; type: in vivo; details: Rattus norvegicus, feed or water, 192 h; male Sprague-Dawley rats, diet supplemented with 0.25% cholic acid and 1.0% cholesterol; 100 mg/kg mixed in diet; eight days; serum HDL-C by FPLC; read-out: HDL Cholesterol Level Increase (%)
Method: The ability of the compounds of this invention to increase blood serum HDL levels was established by the following standard experimental procedure for determination of HDL cholesterol:
Male Sprague-Dawley rats weighing 200–225 g were housed two per cage and fed Purina Rodent Chow Special Mix 5001-S supplemented with 0.25% cholic acid and 1.0% cholesterol and water ad libitum for 8 days. Each test substance was administered to a group of six rats fed the same diet with the test diet mixed in as 0.005–0.1% of the total diet. Body weight and food consumption were recorded prior to diet administration and at termination. Typical doses of the test substances are 5–100 mg/kg/day.
At termination, blood was collected from anesthetized rats and the serum was separated by centrifugation. Total serum cholesterol was assayed using the Sigma Diagnostics enzymatic kit for the determination of cholesterol, Procedure No. 352, modified for use with ninety-six well microtiter plates. After reconstitution with water the reagent contained 300 U/I cholesterol oxidase, 100 U/I cholesterol esterase, 1000 U/I horseradish peroxidase, 0.3 mmoles/l 4-aminoantipyrine and 30.0 mmoles/l p-hydroxybenzenesulfonate in a pH 6.5 buffer. In the reaction, cholesterol was oxidized to produce hydrogen peroxide which is used to form a quinoneimine dye. The concentration of dye formed was measured spectrophotometrically by absorbance at 490 nm after incubation at 25° C. for 30 minutes. The concentration of cholesterol was determined for each serum sample relative to a commercial standard from Sigma.
HDL cholesterol concentrations in serum were determined by separation of lipoprotein classes by fast protein liquid chromatography (FPLC) by a modification of the method of Kieft et al., J. Lipid Res., 32 (1991) 859–866. 25 ul of serum was injected onto Superose 12 and Superose 6 (Pharmacia), in series, with a column buffer of 0.05 M Tris (2-amino-2-hydroxymethyl-1,3-propanediol) and 0.15 M sodium chloride at a flow rate of 0.5 ml/min. The eluted sample was mixed on line with Boehringer-Mannheim cholesterol reagent pumped at 0.2 ml/min. The combined eluents were mixed and incubated on line through a knitted coil (Applied Biosciences) maintained at a temperature of 45 C. The eluent was monitored by measuring absorbance at 490 nm and gave a continuous absorbance signal proportional to the cholesterol concentration. The relative concentration of each lipoprotein class was calculated as the percent of total absorbance. HDL cholesterol concentration, in serum, was calculated as the percent of total cholesterol as determined by FPLC multiplied by the total serum cholesterol concentration.
Test compounds were administered at a dose of 100 mg/kg. Each test substance is administered to a group of six rats. The duration of treatment was eight days.

CCOC(=O)CON1C(=O)C(=O)N(c2cc(Cl)ccc2C)C1=S [Example 1, Ethyl 2-{[3-(5-chloro-2-methylphenyl)-4,5-dioxo-2-thioxo-1-imidazolidinyl]oxy}acetate]
melting point: 157 to 159 °C | change in vivo at 100 mg/kg [1]: 242%

CCOC(=O)CON1C(=O)C(=O)N(c2ccccc2SC)C1=S [Example 2, Ethyl 2-({3-[2-(methylsulfanyl)phenyl]-4,5-dioxo-2-thioxo-1-imidazolidinyl}oxy)acetate]
melting point: 112 to 114 °C | change in vivo at 100 mg/kg [1]: 196%

CCN1C(=O)C(=O)N(c2cc(Cl)ccc2C)C1=S [Example 3, 1-(5-Chloro-2-methylphenyl)-3-ethyl-2-thioxo-4,5-imidazolidinedione]
melting point: 173 to 174 °C | change in vivo at 100 mg/kg [1]: 19%

CCN1C(=O)C(=O)N(c2cc(F)ccc2C)C1=S [Example 4, 1-Ethyl-3-(5-fluoro-2-methylphenyl)-2-thioxo-4,5-imidazolidinedione]
melting point: 152 to 153 °C | change in vivo at 100 mg/kg [1]: 203%

Cc1ccc(Cl)cc1N1C(=O)C(=O)N(C)C1=S [Example 5, 1-(5-Chloro-2-methylphenyl)-3-methyl-2-thioxo-4,5-imidazolidinedione]
melting point: 171 to 173 °C | change in vivo at 100 mg/kg [1]: 186%

Cc1cccc(C)c1N1C(=O)C(=O)N(C)C1=S [Example 6, 1-(2,6-Dimethylphenyl)-3-methyl-2-thioxo-4,5-imidazolidinedione]
melting point: 144 to 146 °C | change in vivo at 100 mg/kg [1]: 227%

CCN1C(=O)C(=O)N(c2ccc(F)cc2)C1=S [Example 7, 1-Ethyl-3-(4-fluorophenyl)-2-thioxo-4,5-imidazolidinedione]
melting point: 172 to 174 °C | change in vivo at 100 mg/kg [1]: 199%

CCN1C(=O)C(=O)N(c2ccc(Cl)cc2C)C1=S [Example 8, 1-(4-Chloro-2-methylphenyl)-3-ethyl-2-thioxo-4,5-imidazolidinedione]
melting point: 161 to 162 °C | change in vivo at 100 mg/kg [1]: 103%

C#CCN1C(=O)C(=O)N(c2cc(Cl)ccc2C)C1=S [Example 9, 1-(5-Chloro-2-methylphenyl)-3-(2-propynyl)-2-thioxo-4,5-imidazolidinedione]
melting point: 162 to 164 °C | change in vivo at 100 mg/kg [1]: 114%

CCN1C(=O)C(=O)N(c2c(C)cccc2C)C1=S [Example 10, 1-(2,6-Dimethylphenyl)-3-ethyl-2-thioxo-4,5-imidazolidinedione]
melting point: 103 to 105 °C | change in vivo at 100 mg/kg [1]: 36%
